Format in all cases: cell-based
One assay addresses T1, SSTR1 (Homo sapiens, UniProt P30872).
T1 construct: expressed in transfected cells
Briefly: cAMP functional agonist assay, CHO cells expressing SSTR1. The conditions noted are these: CHO cells stably expressing SSTR1, cAMP; read-out: SSTR1 EC50. An outline of the steps:
(§1)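 CHO cells stably expressing the human or rodent somatostatin receptor subtype. Agonism measured as decrease in intracellular cAMP via Gi coupling.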

A further assay deals with T2, SSTR4 (Homo sapiens, UniProt P31391).
T2 construct: expressed in transfected cells
Briefly: cAMP functional agonist assay, CHO cells expressing SSTR4. Particulars: CHO cells stably expressing SSTR4, cAMP; read-out: SSTR4 EC50. An outline of the steps:
as §1

The next assay deals with T3, SSTR5 (Homo sapiens, UniProt P35346).
T3 construct: expressed in transfected cells
Briefly: cAMP functional agonist assay, CHO cells expressing SSTR5. The conditions noted are these: CHO cells stably expressing SSTR5, cAMP. An outline of the steps:
(§2)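 CHO cells stably expressing a single somatostatin receptor subtype, grown to 85–100% confluence in F12-Ham's with 10% donor calf serum and hygromycin. Agonism assessed as a decrease in intracellular cAMP via Gi coupling.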

Assay [1] deals with T4, human somatostatin receptor subtype 2a (Homo sapiens, UniProt P30874).
T4 construct: expressed in transfected cells
Briefly: cAMP assay for SSTR2a agonists (HTRF cAMP kit, NKH-477 stimulated). The conditions noted are these: CHO cells stably expressing human SSTR2a, 1.6 μM NKH-477. The protocol:
Chinese hamster ovary (CHO) cells stably expressing one of the six human or rodent somatostatin receptor subtypes are grown to 85-100% confluence on standard tissue culture dishes in F12-Ham's growth media (Hyclone) with following additives: 10% donor calf serum (Hyclone), 200 U/mL penicillin (Hyclone), 200 μg/mL streptomycin (Hyclone), 20 mM HEPES (Hyclone), 200 μg/mL hygromycin Hyclone.
General overview: All SSTR subtypes are Gi coupled G-protein coupled receptors (GPCRs) that lead to decreases in intracellular cyclic AMP (cAMP) when activated by an agonist. Therefore, measurement of intracellular cAMP levels can be used to assess whether compounds of the invention are agonists of SSTR subtypes (John Kelly, Troy Stevens, W. Joseph Thompson, and Roland Seifert, Current Protocols in Pharmacology, 2005, 2.2.1-2.2). One example of an intracellular cAMP assay is described below.
Four days prior to the assay, 5000 Chinese hamster ovary (CHO) cells stably expressing the human somatostatin receptor subtype 2a are plated in each well of a 96-well tissue culture plate (Nest Biotech Cell, flat bottom with low evaporation tissue culture treated; Polystyrene; Non-Pyrogenic) in F12-Ham's media (100 μL/well) supplemented with 200 μg/mL of hygromycin. Incubate at 37 C, 5% CO2, 95% humidity for four days. The cells should reach full confluence. On the day of the assay, various dilutions of the compounds of the invention are prepared in assay buffer (HRTF cAMP kit, Cisbio) in the presence of 1.6 μM NKH-477 (a water-soluble forskolin derivative) and 50 μL of the dilutions are added to the cultured cells and incubated for 20 minutes at 37° C. […] 50 μL of lysis buffer (HRTF cAMP kit, Cisbio) is added to each well and incubated at room temperature for 30 minutes, after which 150 μL assay buffer is added to each well. In a 384-well plate (Grenier, 784-080), 10 μL of assay mixture is added to 10 μL of developing mixture, containing cAMP detection and visualization antibodies are added and the assay is allowed incubate for 1-24 hours at room temperature. The intracellular cAMP concentrations are then measured using a commercially available detection kit (for example, the cAMP HTRF kit, Cisbio). The measured intracellular cAMP concentrations are plotted vs. the concentration of the compounds of the invention and the EC50 of the compounds are calculated using standard methods.
On the technique in general: Changes in cAMP serve as a functional read-out for many G protein-coupled receptors.

Another assay concerns the target SSTR3 (UniProt P32745). Nature of the assay: cAMP functional agonist assay, CHO cells expressing SSTR3. Particulars: CHO cells stably expressing SSTR3, cAMP. Put shortly:
as §2

The text below walks through data of patent US9957267B2, “Somatostatin modulators and uses thereof” (Crinetics Pharmaceuticals, Inc., priority 2015, dated 2018).

Sequence of SSTR3 (P32745 whole entry): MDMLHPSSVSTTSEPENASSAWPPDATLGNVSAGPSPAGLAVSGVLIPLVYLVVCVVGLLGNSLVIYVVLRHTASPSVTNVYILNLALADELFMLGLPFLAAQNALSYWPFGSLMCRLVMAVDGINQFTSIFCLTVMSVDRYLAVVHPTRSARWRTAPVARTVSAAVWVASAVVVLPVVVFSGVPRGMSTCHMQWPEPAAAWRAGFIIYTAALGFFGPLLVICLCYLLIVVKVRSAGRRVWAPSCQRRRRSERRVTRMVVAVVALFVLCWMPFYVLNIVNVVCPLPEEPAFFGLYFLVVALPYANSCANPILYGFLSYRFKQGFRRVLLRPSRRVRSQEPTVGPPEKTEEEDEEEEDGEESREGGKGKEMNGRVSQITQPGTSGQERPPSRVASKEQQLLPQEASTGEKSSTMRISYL
T3 sequence (P35346 whole entry): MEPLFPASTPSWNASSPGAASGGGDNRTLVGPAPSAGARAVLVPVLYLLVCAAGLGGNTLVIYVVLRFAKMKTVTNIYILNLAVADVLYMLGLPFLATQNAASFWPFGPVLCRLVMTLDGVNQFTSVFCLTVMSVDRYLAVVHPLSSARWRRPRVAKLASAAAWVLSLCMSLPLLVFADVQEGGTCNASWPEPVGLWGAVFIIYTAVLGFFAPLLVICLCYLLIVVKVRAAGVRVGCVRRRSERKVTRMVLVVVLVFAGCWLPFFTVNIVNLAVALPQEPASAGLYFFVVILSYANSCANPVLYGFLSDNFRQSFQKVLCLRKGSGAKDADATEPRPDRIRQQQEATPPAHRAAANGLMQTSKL
T4 sequence (P30874 whole entry): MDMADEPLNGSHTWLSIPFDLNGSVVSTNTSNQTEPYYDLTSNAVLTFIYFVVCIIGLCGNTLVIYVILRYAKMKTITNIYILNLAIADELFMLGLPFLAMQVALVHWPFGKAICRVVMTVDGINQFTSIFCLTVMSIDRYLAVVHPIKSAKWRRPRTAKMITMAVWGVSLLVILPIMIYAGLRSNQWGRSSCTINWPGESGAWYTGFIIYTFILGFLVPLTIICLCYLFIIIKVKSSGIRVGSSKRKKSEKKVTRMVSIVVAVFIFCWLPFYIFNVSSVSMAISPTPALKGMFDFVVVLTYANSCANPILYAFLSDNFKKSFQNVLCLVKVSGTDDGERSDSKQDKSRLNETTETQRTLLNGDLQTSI
T1 sequence (P30872 whole entry): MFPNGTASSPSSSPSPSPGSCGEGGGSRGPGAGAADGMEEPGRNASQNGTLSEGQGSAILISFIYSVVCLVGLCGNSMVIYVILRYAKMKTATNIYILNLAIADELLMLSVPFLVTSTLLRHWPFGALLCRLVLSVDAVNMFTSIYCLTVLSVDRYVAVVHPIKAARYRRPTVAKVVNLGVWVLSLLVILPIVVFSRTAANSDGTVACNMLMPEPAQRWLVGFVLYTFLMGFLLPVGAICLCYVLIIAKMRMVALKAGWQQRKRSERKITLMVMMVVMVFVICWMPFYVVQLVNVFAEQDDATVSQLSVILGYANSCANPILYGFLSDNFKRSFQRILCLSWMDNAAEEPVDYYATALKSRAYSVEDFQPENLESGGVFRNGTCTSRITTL
T2 sequence (P31391 whole entry): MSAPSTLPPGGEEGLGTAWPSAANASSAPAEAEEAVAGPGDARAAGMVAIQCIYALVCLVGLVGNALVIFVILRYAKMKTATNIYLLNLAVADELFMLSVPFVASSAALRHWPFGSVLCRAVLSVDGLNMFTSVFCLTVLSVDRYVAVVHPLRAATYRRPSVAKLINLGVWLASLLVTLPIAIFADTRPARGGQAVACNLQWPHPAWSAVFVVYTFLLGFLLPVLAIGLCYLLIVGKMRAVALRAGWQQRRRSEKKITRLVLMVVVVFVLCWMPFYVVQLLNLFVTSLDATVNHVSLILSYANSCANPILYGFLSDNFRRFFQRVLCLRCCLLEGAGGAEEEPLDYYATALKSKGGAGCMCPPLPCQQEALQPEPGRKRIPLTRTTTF

The EC50 is the concentration giving half of the maximal effect. “5-({[(2S)-2-aminobutyl](methyl)amino}methyl)-6-(3,5-dimethylphenyl)-3-[3-hydroxy-5-(trifluoromethyl)phenyl]-3H,4H-pyrido[2,3-d]pyrimidin-4-one [Compound A-63]”: the EC50 at SSTR1 is 100 to 10000 nM; on SSTR4, under 100 nM; at SSTR5, over 10000 nM; in assay [1] it was under 100 nM; on SSTR3 it was under 100 nM.

Regarding `CCN(CCN)Cc1c(-c2cc(C)cc(Cl)c2)cnc2ncn(-c3cc(O)cc(F)c3)c(=O)c12` [Compound A-3, 5-(((2-aminoethyl)(ethyl)amino)methyl)-6-(3-chloro-5-methylphenyl)-3-(3-fluoro-5-hydroxyphenyl)pyrido[2,3-d]pyrimidin-4(3H)-one], the EC50 at SSTR1 is over 10000 nM; at SSTR4 it was under 100 nM; in assay [1], under 100 nM; on SSTR3, 100 to 10000 nM.

For the compound `CCCN(CCN)Cc1c(-c2cc(C)cc(C)c2)cnc2ncn(-c3cccc(O)c3)c(=O)c12` [Compound A-4, 5-{[(2-aminoethyl)(propyl)amino]methyl}-6-(3,5-dimethylphenyl)-3-(3-hydroxyphenyl)-3H,4H-pyrido[2,3-d]pyrimidin-4-one], the EC50 at SSTR1 was 100 to 10000 nM; on SSTR4, under 100 nM; on SSTR5, 100 to 10000 nM; in assay [1] it was under 100 nM; on SSTR3, 100 to 10000 nM.

With `CCN(Cc1c(-c2cc(C)cc(C)c2)cnc2ncn(-c3cccc(O)c3)c(=O)c12)C[C@H](C)N` [Compound A-9, 5-({[(2S)-2-aminopropyl](ethyl)amino}methyl)-6-(3,5-dimethylphenyl)-3-(3-hydroxyphenyl)-3H,4H-pyrido[2,3-d]pyrimidin-4-one], the EC50 is 100 to 10000 nM on SSTR1, under 100 nM on SSTR4, under 100 nM in assay [1] and under 100 nM on SSTR3.

With `Cc1cccc(-c2cnc3ncn(-c4cccc(O)c4)c(=O)c3c2CN(C)CC2CCCCN2)c1` (stereo not drawn) [Compound A-21, 3-(3-hydroxyphenyl)-5-{[methyl(piperidin-2-ylmethyl)amino]methyl}-6-(3-methylphenyl)-3H,4H-pyrido[2,3-d]pyrimidin-4-one], the EC50 at SSTR1 was 100 to 10000 nM; at SSTR4, under 100 nM; at SSTR5 it was over 10000 nM; in assay [1] it was under 100 nM; on SSTR3 it was under 100 nM.

For `CN(Cc1c(-c2cccc(Cl)c2)cnc2ncn(-c3cccc(O)c3)c(=O)c12)CC1CCCCN1` (stereo not drawn) [Compound A-24, 6-(3-chlorophenyl)-3-(3-hydroxyphenyl)-5-{[methyl(piperidin-2-ylmethyl)amino]methyl}-3H,4H-pyrido[2,3-d]pyrimidin-4-one], the EC50 on SSTR1 is 100 to 10000 nM; on SSTR4 it was under 100 nM; in assay [1], under 100 nM; at SSTR3 it was under 100 nM.

`Cc1cc(F)cc(-c2cnc3ncn(-c4cccc(O)c4)c(=O)c3c2CN(C)CC2CCCCN2)c1` (stereo not drawn) [Compound A-25, 6-(3-fluoro-5-methylphenyl)-3-(3-hydroxyphenyl)-5-{[methyl(piperidin-2-ylmethyl)amino]methyl}-3H,4H-pyrido[2,3-d]pyrimidin-4-one]: the EC50 on SSTR1 is 100 to 10000 nM; at SSTR4 it was under 100 nM; in assay [1] it was under 100 nM; on SSTR3 it was under 100 nM.

As to `Cc1cc(C)cc(-c2cnc3ncn(-c4cc(O)cc(F)c4)c(=O)c3c2CN(C)C[C@@H]2CCCCN2)c1` [Compound A-27, 6-(3,5-dimethylphenyl)-3-(3-fluoro-5-hydroxyphenyl)-5-({methyl[(2S)-piperidin-2-ylmethyl]amino}methyl)-3H,4H-pyrido[2,3-d]pyrimidin-4-one], the EC50 at SSTR1 was 100 to 10000 nM; on SSTR4, under 100 nM; on SSTR5, 100 to 10000 nM; in assay [1], under 100 nM; on SSTR3 it was under 100 nM.

Turning to `Cc1cc(Cl)cc(-c2cnc3ncn(-c4cc(O)cc(F)c4)c(=O)c3c2CN(C)C[C@@H]2CCCCN2)c1` [Compound A-28, 6-(3-chloro-5-methylphenyl)-3-(3-fluoro-5-hydroxyphenyl)-5-({methyl[(2S)-piperidin-2-ylmethyl]amino}methyl)-3H,4H-pyrido[2,3-d]pyrimidin-4-one], the EC50 at SSTR1 was 100 to 10000 nM; at SSTR4 it was under 100 nM; at SSTR5, 100 to 10000 nM; in assay [1], under 100 nM; on SSTR3, under 100 nM.

As to `Cc1cc(Cl)cc(-c2cnc3ncn(-c4cccc(O)c4)c(=O)c3c2CN(C)C[C@@H]2CCCCN2)c1` [Compound A-29, 6-(3-chloro-5-methylphenyl)-3-(3-hydroxyphenyl)-5-({methyl[(2S)-piperidin-2-ylmethyl]amino}methyl)-3H,4H-pyrido[2,3-d]pyrimidin-4-one], the EC50 at SSTR1 is 100 to 10000 nM; on SSTR4, under 100 nM; in assay [1], under 100 nM; at SSTR3, under 100 nM.

On to `CN(Cc1c(-c2cccc(CCO)c2)cnc2ncn(-c3cccc(O)c3)c(=O)c12)C[C@@H]1CCCN1` [Compound A-32, 6-[3-(2-hydroxyethyl)phenyl]-3-(3-hydroxyphenyl)-5-({methyl[(2S)-pyrrolidin-2-ylmethyl]amino}methyl)-3H,4H-pyrido[2,3-d]pyrimidin-4-one], for which the EC50 on SSTR1 is over 10000 nM; on SSTR4, under 100 nM; at SSTR5 it was over 10000 nM; in assay [1], under 100 nM; at SSTR3, 100 to 10000 nM.

Consider `CN(Cc1c(-c2cccc(CO)c2)cnc2ncn(-c3cccc(O)c3)c(=O)c12)C[C@@H]1CCCN1` [Compound A-34, 6-[3-(hydroxymethyl)phenyl]-3-(3-hydroxyphenyl)-5-({methyl[(2S)-pyrrolidin-2-ylmethyl]amino}methyl)-3H,4H-pyrido[2,3-d]pyrimidin-4-one], for which the EC50 is over 10000 nM at SSTR1; under 100 nM on SSTR4; over 10000 nM at SSTR5; under 100 nM in assay [1]; 100 to 10000 nM on SSTR3.

Turning to `Cc1cc(Cl)cc(-c2cnc3ncn(-c4cc(O)cc(C(F)(F)F)c4)c(=O)c3c2CN(C)C[C@@H]2CCCN2)c1` [Compound A-48, 6-(3-chloro-5-methylphenyl)-3-[3-hydroxy-5-(trifluoromethyl)phenyl]-5-({methyl[(2S)-pyrrolidin-2-ylmethyl]amino}methyl)-3H,4H-pyrido[2,3-d]pyrimidin-4-one], the EC50 at SSTR1 is 100 to 10000 nM; at SSTR4, under 100 nM; at SSTR5 it was over 10000 nM; in assay [1], under 100 nM; on SSTR3 it was under 100 nM.

For `Cc1cc(Cl)cc(-c2cnc3nc(C)n(-c4cc(F)cc(C#N)c4)c(=O)c3c2CN(C)C[C@@H]2CCCN2)c1` [Compound A-60, 3-[6-(3-chloro-5-methylphenyl)-2-methyl-5-({methyl[(2S)-pyrrolidin-2-ylmethyl]amino}methyl)-4-oxo-3H,4H-pyrido[2,3-d]pyrimidin-3-yl]-5-fluorobenzonitrile], the EC50 at SSTR1 was 100 to 10000 nM; on SSTR4 it was under 100 nM; in assay [1], under 100 nM; on SSTR3 it was under 100 nM.

For the compound `CC[C@H](N)CN(C)Cc1c(-c2cc(C)cc(C)c2)cnc2ncn(-c3cccc(O)c3)c(=O)c12` [Compound A-61, 5-({[(2S)-2-aminobutyl](methyl)amino}methyl)-6-(3,5-dimethylphenyl)-3-(3-hydroxyphenyl)-3H,4H-pyrido[2,3-d]pyrimidin-4-one], the EC50 was under 100 nM at SSTR4, over 10000 nM at SSTR5, under 100 nM in assay [1] and 100 to 10000 nM on SSTR3.

As to `CC[C@H](N)CN(C)Cc1c(-c2cc(C)cc(Cl)c2)cnc2ncn(-c3cc(O)cc(F)c3)c(=O)c12` [Compound A-66, 5-({[(2S)-2-aminobutyl](methyl)amino}methyl)-6-(3-chloro-5-methylphenyl)-3-(3-fluoro-5-hydroxyphenyl)-3H,4H-pyrido[2,3-d]pyrimidin-4-one], the EC50 is over 10000 nM at SSTR1, under 100 nM at SSTR4, under 100 nM in assay [1] and 100 to 10000 nM at SSTR3.
